Assay results reported in US20130266663A1, “SOX9 INHIBITORS” (priority 2010, published 2013).

Key:
[1] = tested on: rats subject to spinal cord injury; test: Behavioral testing (BBB scale) after spinal cord injury; assay type: in vivo; settings: rat SCI, 0.35 mg/ml and 3.5 mg/ml for 7 days via intrathecal miniosmotic pump; saline controls no improvement
Method: As examples of the general utility of chemical compounds for general CNS damage and repair, chlorpromazine was assessed in rodent models of spinal cord injury and stroke (MCAO). […] Briefly, rats were subject to spinal cord injury as described and administered chlropromzaine at 0.35 mg/ml and 3.5 mg/ml for 7 days via the intrathecal miniosmotic pump. At 7 days, 4 rats were assessed for behavioral recovery, prior to being sacrificed for gene expression analyses as described above.
In these studies rats (n=16 per group) will receive the SOX9 inhibitor for 6 weeks at which time half of the animals will be processed for SOX9 target gene expression by Q-PCR (as described above) and half will be processed for immunohistochemistry. […] Locomotor recovery, chronic pain syndromes and autonomic function will be assessed in treated and control mice. Motor function will be evaluated once per week using the Basso, Beattie and Bresnahan (BBB) scale for scoring hind limb function (Basso 1995). The presence of mechanical allodynia (a pain syndrome in which innocuous stimuli are perceived as painful) will be assessed once a week by stimulating the backs of the mice with a modified 1.569 mN Semmes Weinstein monofilament at, and rostral, to the level of the injury. […] Finally autonomic function will be assessed by measuring the degree of autonomic dysreflexia in animals before being sacrificed. […]

SOX9 target genes [2] = test: Quantitative RT-PCR of SOX9 target genes after SCI, intrathecal miniosmotic pump delivery for 7 days; assay type: in vivo, rat; settings: spinal cord-injured rats, 0.35 mg/ml or 3.5 mg/ml
Method: To assess, the intrathecal miniosmotic pump as a means of compound delivery, spinal cord-injured rats received either saline, 0.35 mg/ml or 3.5 mg/ml of chlorpromazine for 7 days. At 7 days the levels of SOX9 target gene expression including GFAP, Brevican, XT-1 and Hapln1 were measured by quantitative RT-PCR as previously described.

SOX9 target genes [3] = test: Short-term SOX9 target gene expression (Q-PCR) in injured cord after SCI; assay type: in vivo; settings: rat SCI, 2 mg/kg ip 2 hours after injury, sacrificed twelve hours later
Method: To validate the impact of the compounds on relevant conditions in rodents, a short-term experiment was performed to see whether chlorpromazine might reduce SOX9 target gene expression in vivo. […] Twelve hours later the rats were sacrificed and RNA was isolated from a 5 mm segment of their injured cords centered on the lesion. […] Specifically, the decrease in the expression of GFAP indicates a lower level of astrocyte activation.
Twelve hours later the rats were sacrificed and RNA was isolated from a 5 mm segment of their injured cords centered on the lesion.

## CN(C)CCCN1c2ccccc2Sc2ccc(Cl)cc21 [chlorpromazine]
[1]
  locomoter function score (BBB scale): non-zero scores
SOX9 target genes [2]
  SOX9 target gene expression including GFAP, Brevican, XT-1 and Hapln1: improved anticipated outcome at 3.5 mg/ml of drug
SOX9 target genes [3]
  CSPG Aggrecan expression: significant decrease
  Type II collagen expression: reduced
  Type IV collagen expression: reduced
  expression of GFAP: decrease
  expression of scar generating factors: decreased expression
